Experiments:
female SD rats = assay: Urethral baseline pressure (intraurethral pressure) in anesthetized rats after oral administration; format: in vivo; conditions: 10 mg/kg oral, 11-week-old female SD rats, 30 minutes after 8 hours from administration, compared with solvent administration group (Student's t-test), FIG. 1
Method: The compounds of the present invention and a comparative compound were individually orally administered in an amount of 10 mg/kg to 11-week-old female SD rats (test substance-administration groups) and distilled water was orally administered as the control to 11-week-old female SD rats (solvent administration group, n=8). As the comparative compound, 4-piperidyl 2,2-diphenyl-2-propoxyacetate was used (Comparative Example).
Seven and a half hours after administration, each rat was anesthetized by intraperitoneal administration of 1.2 g/kg of urethane. Thereafter, the ureters and the area between the urethra and the bladder were ligated, and a vesical fistula catheter and a catheter for measuring intraurethral pressure were inserted and indwelled in the bladder and the urethra. […] Intravesical pressure and intraurethral pressure were recorded via a polygraph connected with the pressure transducers. […] Physiological saline was injected into the urethra using the micro syringe pump connected to the urethra at 3 mL/hr, and the changes in intraurethral pressure associated with the rhythmic contraction were recorded.
The mean values of the urethral baseline pressure for the solvent administration group and the test substance-administration groups were calculated, and the results were indicated as mean±SE. […]

melting point	SMILES	urethral baseline pressure (female SD rats)	urethral baseline pressure (female SD rats; listed as Comparative Example)
152 to 153 °C	Cl.O=C(OC1CCNCC1)C(OCCC(F)(F)F)(c1ccccc1)c1ccccc1	–	–
135 to 136 °C	Cl.O=C(OC1CCNCC1)C(OCCCF)(c1ccccc1)c1ccccc1	–	–
130 to 132 °C	Cl.O=C(COCCC(F)F)OC1CCNCC1	–	–
172 to 174 °C	Cl.O=C(OC1CCNCC1)C(OCC(F)F)(c1ccccc1)c1ccccc1	–	–
128 to 130 °C	Cl.O=C(OC1CCNCC1)C(OCC(F)(F)C(F)F)(c1ccccc1)c1ccccc1	–	–
98 to 100 °C	Cl.O=C(OC1CCNCC1)C(OCC(F)(F)C(F)(F)F)(c1ccccc1)c1ccccc1	–	–
–	CCCOC(C(=O)OC1CCNCC1)(c1ccccc1)c1ccccc1 [comparative compound, 4-piperidyl 2,2-diphenyl-2-propoxyacetate]	little effect	did not have a significant effect
